# Data from patent US20050026987A1, “CBI analogues of the duocarmycins and CC-1065” (The Scripps Research Institute, priority 2003, published 2005).
# “And” between values parts separate entries of the source, which are not always exact repeats. Equal entries are not always repeated. Where two headings read alike, the source gives them in different places.
# Key:
# [1] = system: L1210; assay: L1210 cytotoxic potency; conditions: for distinction NO2 versus OMe substituent (more potent than corresponding methoxy derivative): C5, C6, C7 nitro vs corresponding methoxy; for fold less potent than C5 acyl derivative 54: 52: versus the C5 acyl derivatives, 62: versus 54
# [2] = system: L1210; conditions: cited from earlier work
# [3] = system: w794 DNA; assay: DNA alkylation selectivity, efficiency and rate in w794 DNA; format: biochemical
# [4] = relative to (+)-CBI-indole (R=H)
# [5] = read-out: IC50 (cytotoxic potency), L1210
# [6] = Mus musculus, L1210, read-out: IC50 (cytotoxic potency)
# [7] = relative to CBI-TMI, IC50=30 pM
compound,measurement,setting,value
"O=C1C=C2N(C(=O)c3cc4c(ccc5ccccc54)[nH]3)C[C@H]3C[C@@]23c2ccccc21 [(+)-77, N^2-[(Benz[e]indole-2-yl)carbonyl]-1,2,9,9a-tetrahydrocyclopropa[c]benz[e]indol-4-one]",reduction in potency relative to the fused pyrrole 69 or the fused furan 71,[1],6-8 fold
same,reduction in cytotoxic potency compared to (+)-CBI-indole,[1]; [4],2 fold
"O=C1C=C2N(C(=O)c3cc4cc5ccccc5cc4[nH]3)C[C@@H]3C[C@]23c2ccccc21 [(+)-78, N^2-[(Benz[f]indole-2-yl)carbonyl]-1,2,9,9a-tetrahydrocyclopropa[c]benz[e]indol-4-one]",increase in cytotoxic potency over (+)-CBI-indole (5),[1]; [4],5 fold
NC(=O)N1CCc2c1ccc1[nH]c(C(=O)N3C[C@H]4C[C@@]45C3=CC(=O)c3ccccc35)cc21 [(+)-CBI-CDPI1],IC50,"[2]; disclosed in prior studies (J. Org. Chem. 1996, 61, 4894), read-out: IC50 (cytotoxic potency), prior studies",0.005 nM
"COc1cc2cc(C(=O)N3CC4CC45C3=CC(=O)c3ccccc35)[nH]c2c(OC)c1OC (stereo not drawn) [CBI-TMI, reference compound]",IC50,[1]; [5],0.03 nM
same,increase in cytotoxic potency over (+)-CBI-indole (5),[1]; [4],~100 fold and 90 fold
COc1c(O)c2c(c3cc(C(=O)N4CCc5c4c(O)c(OC)c4[nH]c(C(=O)N6CC7CC78C6=CC(=O)c6[nH]cc(C)c68)cc54)[nH]c13)CCN2C(N)=O (stereo not drawn) [CC-1065],IC50,[1]; [6],0.02 nM
"O=C1C=C2N(C(=O)c3cc4ccccc4[nH]3)CC3CC23c2ccccc21 [compound 5, N^2-[(Indole-2-yl)carbonyl]-(8bR,9aS)-1,2,9,9a-tetrahydrocyclopropa[c]benz[e]indol-4-one, reference compound]",IC50,[1]; [5],0.05 nM
"COc1cccc2[nH]c(C(=O)N3C[C@H]4C[C@@]45C3=CC(=O)c3ccccc35)cc12 [compound 6, N^2-[(4-Methoxyindole-2-yl)carbonyl]-(8bR,9aS)-1,2,9,9a-tetrahydrocyclopropa[c]benz[e]indol-4-one]",increase in cytotoxic potency over (+)-CBI-indole (5),[1]; [4],4 fold
same,decrease in cytotoxic potency compared with CBI-TMI (4),[1]; [7],17 fold and 16-17 fold
"COc1ccc2[nH]c(C(=O)N3C[C@H]4C[C@@]45C3=CC(=O)c3ccccc35)cc2c1 [compound 7, N^2-[(5-Methoxyindole-2-yl)carbonyl]-(8bR,9aS)-1,2,9,9a-tetrahydrocyclopropa[c]benz[e]indol-4-one]",IC50,[1]; [5],0.05 nM
same,decrease in cytotoxic potency compared with CBI-TMI (4),[1]; [7],1.6 fold
"COc1ccc2[nH]c(C(=O)N3CC4CC45C3=CC(=O)c3ccccc35)cc2c1OC [compound 10, N^2-[(4,5-Dimethoxyindole-2-yl)carbonyl]-(8bR,9aS)-1,2,9,9a-tetrahydrocyclopropa[c]benz[e]indol-4-one]",relative cytotoxic potency in words,[1],much less active
"COc1ccc2cc(C(=O)N3CC4CC45C3=CC(=O)c3ccccc35)[nH]c2c1OC [compound 12, N^2-[(6,7-Dimethoxyindole-2-yl)carbonyl]-(8bR,9aS)-1,2,9,9a-tetrahydrocyclopropa[c]benz[e]indol-4-one]",decrease in cytotoxic potency compared with CBI-TMI (4),[1]; [7],6.6 fold
"CCOc1ccc2[nH]c(C(=O)N3CC4CC45C3=CC(=O)c3ccccc35)cc2c1 [compound 15, N^2-[(5-Ethoxyindole-2-yl)carbonyl]-(8bR,9aS)-1,2,9,9a-tetrahydrocyclopropa[c]benz[e]indol-4-one]",additional increase in cytotoxic potency versus C5 methoxy,[1]; C5 alkyl ethers relative to C5 OMe,5 fold
same,IC50,[1]; [5],0.01 nM
"CSc1ccc2[nH]c(C(=O)N3CC4CC45C3=CC(=O)c3ccccc35)cc2c1 [compound 21, N^2-[(5-Thiomethylindole-2-yl)carbonyl]-(8bR,9aS)-1,2,9,9a-tetrahydrocyclopropa[c]benz-[e]indol-4-one]",IC50,[1]; [5],0.05 nM
"CCSc1ccc2[nH]c(C(=O)N3CC4CC45C3=CC(=O)c3ccccc35)cc2c1 [compound 23, N^2-[(5-Thioethylindole-2-yl)carbonyl]-(8bR,9aS)-1,2,9,9a-tetrahydrocyclopropa[c]benz[e]indol-4-one]",IC50,[1]; [5],0.1 nM
"Cc1ccc2[nH]c(C(=O)N3C[C@H]4C[C@@]45C3=CC(=O)c3ccccc35)cc2c1 [compound 24, N^2-[(5-Methylindole-2-yl)carbonyl]-(8bR,9aS)-1,2,9,9a-tetrahydrocyclopropa[c]benz[e]in-dol-4-one]",IC50,[1]; [5],2 nM
"CCc1ccc2[nH]c(C(=O)N3CC4CC45C3=CC(=O)c3ccccc35)cc2c1 [compound 25, N^2-[(5-Ethylindole-2-yl)carbonyl]-(8bR,9aS)-1,2,9,9a-tetrahydrocyclopropa[c]benz[e]indol-4-one]",IC50,[1]; [5],2 nM
"N#Cc1ccc2[nH]c(C(=O)N3CC4CC45C3=CC(=O)c3ccccc35)cc2c1 [compound 31, N^2-[(5-Cyanoindole-2-yl)carbonyl]-(8bR,9aS)-1,2,9,9a-tetrahydrocyclopropa[c]benz[e]in-dol-4-one]",IC50,[1]; [5],0.03 nM
"O=C(c1cc2cc([N+](=O)[O-])ccc2[nH]1)N1C[C@@H](CCl)c2c1cc(O)c1ccccc21 [compound 49, 3-(5-Nitroindole-2-carbonyl)-1-(S)-(chloromethyl)-5-hydroxy-1,2-dihydro-3H-benz[e]indole]",distinction NO2 versus OMe substituent (more potent than corresponding methoxy derivative),[1],2.5 ×
same,IC50,[1]; [6],0.02 nM
"O=C(c1cc2ccc([N+](=O)[O-])cc2[nH]1)N1C[C@@H](CCl)c2c1cc(O)c1ccccc21 [compound 50, 3-(6-Nitroindole-2-carbonyl)-1-(S)-(chloromethyl)-5-hydroxy-1,2-dihydro-3H-benz[e]indole]",distinction NO2 versus OMe substituent (more potent than corresponding methoxy derivative),[1],5 ×
"O=C(c1cc2cccc([N+](=O)[O-])c2[nH]1)N1C[C@@H](CCl)c2c1cc(O)c1ccccc21 [compound 51, 3-(7-Nitroindole-2-carbonyl)-1-(S)-(chloromethyl)-5-hydroxy-1,2-dihydro-3H-benz[e]indole]",distinction NO2 versus OMe substituent (more potent than corresponding methoxy derivative),[1],1.5 ×
"O=Cc1ccc2[nH]c(C(=O)N3C[C@@H](CCl)c4c3cc(O)c3ccccc43)cc2c1 [compound 52, 3-(5-Formylindole-2-carbonyl)-1-(S)-(chloromethyl)-5-hydroxy-1,2-dihydro-3H-benz[e]indole]",fold less potent than C5 acyl derivative 54,[1],50 fold
"CC(=O)c1ccc2[nH]c(C(=O)N3C[C@H]4C[C@@]45C3=CC(=O)c3ccccc35)cc2c1 [compound 54, N^2-[(5-Acetylindole-2-yl)carbonyl]-(8bR,9aS)-1,2,9,9a-tetrahydrocyclopropa[c]benz[e]in-dol-4-one]",DNA alkylation selectivity,[3],no alterations in the inherent DNA alkylation selectivity
same,rate and efficiency of DNA alkylation,[3],enhanced rate and efficiency of DNA alkylation
same,increase in cytotoxic potency over (+)-CBI-indole (5),[1]; [4],1000 fold
"CCC(=O)c1ccc2[nH]c(C(=O)N3CC4CC45C3=CC(=O)c3ccccc35)cc2c1 [compound 56, N^2-[(5-Propionylindole-2-yl)carbonyl]-(8bR,9aS)-1,2,9,9a-tetrahydrocyclopropa[c]benz[e]-indol-4-one]",increase in cytotoxic potency over (+)-CBI-indole (5),[1]; [4],1000 fold
"CCCC(=O)c1ccc2[nH]c(C(=O)N3C[C@H]4C[C@@]45C3=CC(=O)c3ccccc35)cc2c1 [compound 57, N^2-[(5-Butyrylindole-2-yl)carbonyl]-(8bR,9aS)-1,2,9,9a-tetrahydrocyclopropa[c]benz[e]indol-4-one]",IC50,[1]; [5],0.02 nM
"CNC(=O)c1ccc2[nH]c(C(=O)N3C[C@@H](CCl)c4c3cc(O)c3ccccc43)cc2c1 [compound 62, 3-(5-Methylcarbamoylindole-2-carbonyl)-1-(S)-(chloromethyl)-5-hydroxy-1,2-dihydro-3H-benz[e]indole]",fold less potent than C5 acyl derivative 54,[1],5 fold
same,fold more potent than (+)-CBI-TMI,[1]; [7],3 fold
"CS(=O)(=O)c1ccc2[nH]c(C(=O)N3C[C@@H](CCl)c4c3cc(O)c3ccccc43)cc2c1 [compound 64, 3-(5-Methylsulfonylindole-2-carbonyl)-1-(S)-(chloromethyl)-5-hydroxy-1,2-dihydro-3H-benz[e]indole]",IC50,[1]; [6],0.003 nM
same,increase in cytotoxic potency over (+)-CBI-indole (5),[1]; [4],1000 fold
"CCS(=O)(=O)c1ccc2[nH]c(C(=O)N3C[C@@H](CCl)c4c3cc(O)c3ccccc43)cc2c1 [compound 65, 3-(5-Ethylsulfonylindole-2-carbonyl)-1-(S)-(chloromethyl)-5-hydroxy-1,2-dihydro-3H-benz[e]indole]",IC50,[1]; [6],0.04 nM
"O=C1C=C2N(C(=O)c3cc4c5c(ccc4[nH]3)OCC5)CC3CC23c2ccccc21 [compound 70, N^2-[(1,2-Dihydropyrrolo[3,2-e]benzofuran-7-yl)carbonyl]-(8bR,9aS)-1,2,9,9a-tetrahydro-cyclopropa[c]benz[e]indol-4-one]",relative cytotoxic potency in words,[1],slightly more potent than 7
"O=C1CCc2c1ccc1[nH]c(C(=O)N3C[C@@H](CCl)c4c3cc(O)c3ccccc43)cc21 [compound 72, 3-(6-Oxo-cyclopenten[e]indole-2-carbonyl)-1-(S)-(chloromethyl)-5-hydroxy-1,2-dihydro-3H-benz[e]indole]",relative cytotoxic potency in words,[1],matched the potency of the C5 substituted methyl and ethyl ketones 54 and 56
"O=C(C1Oc2ccc3[nH]ccc3c2O1)N1C[C@@H](CCl)c2c1cc(O)c1ccccc21 (stereo partly drawn) [compound 74, 3-([1,3]Dioxolo[e]indole-2-carbonyl)-1-(S)-(chloromethyl)-5-hydroxy-1,2-dihydro-3H-benz[e]indole]",relative cytotoxic potency in words,[1],"much more active than the corresponding unconstrained 4,5 dimethoxy derivative 10"
"O=C1C=C2N(C(=O)c3cc4cc5c(cc4[nH]3)OCO5)C[C@H]3C[C@@]23c2ccccc21 [compound 75, N^2-[([1,3]Dioxolo[f]indole-2-yl)carbonyl]-(8bR,9aS)-1,2,9,9a-tetrahydrocyclopropa[c]-benz[e]indol-4-one]",relative cytotoxic potency in words,[1],"substantially less potent than the corresponding unconstrained C5,6 dimethoxy derivative 11"
"COC(=O)c1cc2c([nH]1)C(=O)C=C1N(C(=O)c3cc4cc(OC)c(OC)c(OC)c4[nH]3)CC3CC123 (stereo not drawn) [duocarmycin SA, reference compound]","effect of 5,6,7-trimethoxy substitution / removal of TMI methoxy substituents on cytotoxic potency",[2]; literature comparison series,6.5-10 fold
same,IC50,[1]; [6],0.006 to 0.01 nM
